Assay results as given in PubChem BioAssay AID2305 (GlaxoSmithKline (GSK), 2010).

These compounds were tested on P. falciparum 3D7 growth, pLDH absorbance (assay: P. falciparum 3D7 growth inhibition, dose response, strain 3D7 (AID 2305)).

Row | Compound | IC50
1 | CC(C)CNCc1ccc(-c2cccc(CN(C(=O)CCC3CCCC3)C3CCN(Cc4ccccc4)CC3)c2)cc1 | 800 nM
2 | Cc1cc(N(C)C)nc(Nc2ccc(NC(=O)C(C)Oc3ccccc3)cc2)n1 (configuration not stated) | 950 nM
3 | O=C(NCCCN1CCN(c2cccc(Cl)c2)CC1)c1ccc(-c2nc3cc(Cl)c(Cl)cc3[nH]2)cc1 | 700 nM
4 | Nc1nc(-c2ccc3c(Nc4ccc(F)c(Cl)c4)ccnc3c2)cs1 | 870 nM
5 | Cc1cc(C(=O)N(Cc2ccc(-c3ccc(CNCCc4ccc(S(C)(=O)=O)cc4)cn3)cc2)C(C)CN(C)C)ccc1[N+](=O)[O-] (configuration not stated) | 790 nM
6 | CC(C)(C)OC(=O)NCCc1cccc(-c2c[nH]c3ncc(-c4cccc(NS(C)(=O)=O)c4)cc23)c1 | 680 nM
7 | O=C(CCCCCNC(=O)c1ccc(O)c(-c2cccc(C(F)(F)F)c2)c1)NCCN1CCCCC1 | 890 nM
8 | Cc1cc(NC(=O)NCCN2CCC(NC(=O)c3ccc(F)cc3)CC2)c2ccccc2n1 | 330 nM
9 | COc1cc(N)c(Cl)cc1C(=O)NCC1CCN(c2nc(C)cc(C)n2)CC1 | 510 nM
10 | COc1ccc(-c2nc3nc4ccccc4cc3[nH]2)c(OCC(O)CNC(C)C)c1 (configuration not stated) | 690 nM
11 | CNc1nc(NN=Cc2ccccc2Cl)nc(Nc2cccc(C(F)(F)F)c2)n1 | 920 nM
12 | OC(CNCCCCCCNCC(O)c1ccc(Cl)c(Cl)c1)c1ccc(Cl)c(Cl)c1 (configuration not stated) | 910 nM
13 | CN(C)C(=O)c1ccc(CN(Cc2cccc(OC(C)(C)C)c2)Cc2ccc3c(c2)OCCO3)cc1 | 570 nM
14 | Cc1ccc(CC(C)NCC(O)c2cccc(Cl)c2)cc1 (configuration not stated) | 930 nM
15 | CN1CCN(CC(=O)Nc2cccc(-c3ccc(-c4nc5ccc(C(F)(F)F)cc5[nH]4)s3)c2)CC1 | 310 nM
16 | Cc1cccn2c(=O)c3cc(C(=O)NC(C)c4ccccc4)c(=N)n(CCN4CCOCC4)c3nc12 (configuration not stated) | 820 nM
17 | Cc1cccc2[nH]c(-c3cccc(-c4ccc(NC(=O)c5cccnc5)cc4)c3)nc12 | 590 nM
18 | CCOc1ccc2c(NN=Cc3ccccc3OC)cc(C)nc2c1 | 500 nM
19 | CC(C)(C)c1ccc(NC(=O)Nc2ccc(Cn3ncc(N4CCCNCC4)c(Cl)c3=O)cc2)cc1 | 750 nM
20 | COc1cc(F)c2ncc(C#N)c(CCN3CCC(NCc4ccc5c(c4)OCCO5)CC3)c2c1 | 430 nM
21 | CC(C)c1ccc(NC(=O)c2ccc(CN3CCCN(CC4CCCCC4)CC3)cc2)cc1 | 620 nM
22 | O=C(Nc1cccc(Cl)c1Cl)NC1CCN(Cc2cccc(O)c2)CC1 | 800 nM
23 | O=C(NCc1cc2c(cc1Cl)OCO2)c1ccc(CNC2CCN(Cc3ccccc3)CC2)cc1 | 830 nM
24 | CCC(O)c1ccc(Br)cc1NC(=O)c1cccc(Cl)c1 (configuration not stated) | 1020 nM
25 | CCC[C@@H]([C@@H](CC1CCCCC1)C(=O)N[C@H](C(=O)Nc1ccccn1)[C@H](C)CC)N(O)C=O | 530 nM

Row | Compound | IC50
26 | CCOCCCn1c(=N)c(C(=O)NCc2ccc(F)cc2)cc2c(=O)n3cccc(C)c3nc21 | 530 nM
27 | O=S(=O)(c1ccc(Cl)cc1Cl)N1CCCCC(c2ccc(C(F)(F)F)cc2)=N1 | 160 nM
28 | O=S(=O)(c1ccc(OCc2ccc(Cl)cc2)cc1)c1cc2c(cc1OCc1ccccc1)CCN(CC1CC1)CC2 | 1110 nM
29 | N#Cc1cccc(NC(=O)c2ccc(S(=O)(=O)NCC3CCCN3CC3CCCCC3)cc2)c1 (configuration not stated) | 1050 nM
30 | CC(C)CCOc1ccc(NC(=O)c2cccs2)cc1 | 510 nM
31 | CN(C)CCN(C)Cc1ccc(-c2cccc(NC(=O)c3ccc(Cl)cc3)c2)cc1 | 560 nM
32 | OC1CCC(Nc2ccc3ncc(-c4ccc(Cl)cc4)n3n2)CC1 (configuration not stated) | 820 nM
33 | CC(=O)OCCN1C(=O)c2ccc3c4c(ccc(c24)C1=O)C(=O)N(CCOC(C)=O)C3=O | 240 nM
34 | O=C(NCCN1CCCCC1)c1cc2cc(-c3ccccc3)ccc2n1S(=O)(=O)c1ccccc1 | 1120 nM
35 | CN(C)c1ccc(N=C2N=C(Nc3ccc(N(C)C)cc3)c3ccccc32)cc1 | 850 nM
36 | O=C(NCCN1CCCC1)N1CCCN(c2ncnc3cc(-c4ccc(Cl)cc4)sc23)CC1 | 920 nM
37 | COc1ccc(O)c(C(=O)c2cnc3c(c2)c(-c2ccc(F)cc2)c(C#N)c(=O)n3C)c1 | 790 nM
38 | O=C(CCc1cnc[nH]1)Nc1cccc(-c2ccc(-c3nc4ccc(F)cc4[nH]3)s2)c1 | 560 nM
39 | O=C(Nc1ccc(F)c(F)c1)c1ccc(CN2CCCN(Cc3cccc(O)c3)CC2)cc1 | 840 nM
40 | CC1(C)N=C(NC(=O)c2cc([N+](=O)[O-])cc([N+](=O)[O-])c2)N=C(N)N1OCc1cccc2ccccc12 | 10 nM
41 | COc1cccc2cc(C(=O)N[C@@H](CC(C)C)C(=O)N[C@H](/C=N/NC(=O)Cc3cccnc3)CCc3ccccc3)oc12 | 950 nM
42 | CC(C)(C)c1ccc(NC(=O)c2cccc(CN3CCCN(Cc4cccc(O)c4)CC3)c2)cc1 | 550 nM
43 | Cc1cc(N[C@@H](Cc2ccccc2)C(=O)NCc2cccs2)nc(NCC2CCCCC2)n1 | 990 nM
44 | COc1ccccc1CNC(=O)c1cc(OC)c(OC)cc1NC(=O)c1cccs1 | 1440 nM
45 | CCCCCCCN1CC[C@@H](CCCc2ccnc3ccc(OCCN4CCOCC4)cc23)[C@@H](CC)C1 | 910 nM
46 | O=C(Nc1ccc(OC(F)(F)F)cc1)Nc1ccc([N+](=O)[O-])cc1 | 880 nM
47 | CN1CCN(CCCN(Cc2cccc(-c3cccc(CNCCc4ccccc4)c3)c2)C(=O)Nc2ccccc2)CC1 | 580 nM
48 | COc1cccc(NC(=O)CSc2nc(-c3ccccc3Cl)ns2)c1 | 810 nM
49 | CCNc1cc(C(=O)N[C@@H](Cc2ccccc2)[C@H](O)CNC2(C(C)C)CCC2)cc(N2CCCCS2(=O)=O)c1 | 680 nM
50 | CCOC(=O)c1ccc(NC(=O)N(Cc2ccc(-c3ccc(CN4CCNCC4)cc3)cc2)Cc2cccnc2)cc1 | 930 nM

Row | Compound | IC50
51 | Cc1cccc2[nH]c(-c3cccc(-c4cccc(CNCc5cnn(-c6ccccc6)n5)c4)c3)nc12 | 660 nM
52 | CCC(CO)NCC(O)Cn1c2ccc(Cl)cc2c2cc(Cl)ccc21 (configuration not stated) | 770 nM
53 | COc1ccc(NC(=O)[C@H](Cc2ccccc2)Nc2cc(C)nc(NCc3ccccc3C)n2)cc1 | 790 nM
54 | O=C(/C=C/c1ccc(Cl)c(Cl)c1)NCCCCCN1CCCC(CNC(=O)Nc2ccc(Oc3ccccc3)cc2)C1 (configuration not stated) | 780 nM
55 | CCCC(C)NC(=O)/C=C/c1ccccc1-c1cccc(OC)c1 (configuration not stated) | 1250 nM
56 | Cc1cc(N[C@@H](CC(C)C)C(=O)NCc2cccc(F)c2)nc(Nc2ccccc2)n1 | 1090 nM
57 | CC(Cc1ccc(NC(=O)c2ccc(CNCc3ccccc3)cc2)cc1)N(CCc1cccc(Cl)c1)C(=O)OC(C)(C)C (configuration not stated) | 970 nM
58 | O=C(c1c(-c2[nH]c3ccccc3c2C(=O)C(F)(F)F)[nH]c2ccccc12)C(F)(F)F | 750 nM
59 | Cc1ccc(OCC2CCN(c3ncc(C(=O)NC4CC4)cc3Cl)CC2)cc1 | 1090 nM
60 | O=C(NC1CCN(CCC(NC(=O)c2ccccc2)c2ccc(Cl)c(Cl)c2)CC1)c1ccc(Cl)cc1 (configuration not stated) | 1070 nM
61 | CCCCCCOc1ccc(C(=O)NCCC2CCN(CCCCCNC(=O)C=Cc3ccc(Cl)c(Cl)c3)CC2)cc1 | 660 nM
62 | CC(C)C(=O)NC(c1ccc(Cl)cc1)c1ccc2cccnc2c1O (configuration not stated) | 870 nM
63 | O=C(C=Cc1ccc(Cl)c(Cl)c1)NCCCCCN1CCCC(CCCNC(=O)c2ccc3c(c2)OCO3)C1 (configuration not stated) | 1220 nM
64 | Cc1cccc2[nH]c(-c3cccc(-c4cccc(NC(=O)c5cnc[nH]5)c4)c3)nc12 | 260 nM
65 | COc1ccc(CNCc2cccc(-c3ccc(-c4nc5ccccc5[nH]4)s3)c2)cc1 | 820 nM
66 | COc1ccc(N2C(N)=NC(N)=NC2(C)C)cc1 | 110 nM
67 | Cc1ccc(Nc2ccnc(Nc3ccc(C)c(F)c3)n2)cc1O | 760 nM
68 | CC(C)(C)c1ccc(CN2CCC(CNC(=O)c3cc(-c4cccc(F)c4)cs3)C2)cc1 (configuration not stated) | 900 nM
69 | O=C(Nc1ccc(C(F)(F)F)cc1)NC1CCN(c2ccnc3ccccc23)C1 (configuration not stated) | 90 nM
70 | CC(=O)N[C@@H]1c2cc(C(C)=O)ccc2OC(C)(C)[C@@H]1O | 980 nM
71 | Cc1cccc2[nH]c(-c3cccc(-c4cccc(NC(=O)CNc5ccc(C(N)=O)cc5)c4)c3)nc12 | 280 nM
72 | CCCOc1ccc(CCNCCCCNCCc2ccc(OCCC)c3ccccc23)c2ccccc12 | 920 nM
73 | O=C(Nc1cc(C(F)(F)F)cc(C(F)(F)F)c1)c1cc(Cl)ccc1O | 1310 nM
74 | COc1ccc(-c2cc3ncnc(N4CCN(CCN5CCCC5)CC4)c3s2)cc1 | 830 nM
75 | CNC(=O)c1cnc(Nc2ccc(N3CCN(C)CC3)cc2)nc1Nc1ccccc1OC | 930 nM

Row | Compound | IC50
76 | Cc1cccc(CNc2nc(C)cc(N[C@@H](Cc3ccccc3)C(=O)NCCOc3ccccc3)n2)c1 | 910 nM
77 | Cc1cc(NC(=O)Nc2ccc(C(C)(C)C)cc2)c2ccccc2n1 | 720 nM
78 | COc1cc(Cc2cnc(N)nc2N)cc(OCCn2ccccc2=O)c1OC | 770 nM
79 | O=C(NCCCCCN1CCC(c2c[nH]c3ccccc23)CC1)Nc1cccc(Cl)c1 | 1020 nM
80 | C#CCOc1ccccc1CN1CCC(N2CCc3cc(NC(=O)c4cc(C)on4)ccc32)C1 (configuration not stated) | 680 nM
81 | Cc1cccc(C(=O)N2CCN(Cc3cccc(NC(=O)c4ccco4)c3)CC2)c1 | 760 nM
82 | CC(C)(C(=O)Nc1ccc(C2CCC(NCC3CC3)CC2)c(Cl)c1)c1cccc(OC(F)F)c1 (configuration not stated) | 970 nM
83 | O=C(NC1CCN(Cc2ccsc2)CC1)c1ccc(-c2cccc(C(F)(F)F)c2)s1 | 1440 nM
84 | COc1c(Br)cc(Br)cc1-c1ccc(CN2CC3CCC2CC3)[nH]1 | 690 nM
85 | CCOc1ccc(-c2nonc2NC(=O)c2ccc(F)cc2)cc1OCC | 330 nM
86 | CC(Oc1ccc(Cl)cc1Cl)c1nc(-c2ccc(NC(=O)c3ccco3)cc2)no1 (configuration not stated) | 900 nM
87 | Cc1nc(NCCc2cnc[nH]2)cc(NCc2ccccc2)n1 | 830 nM
88 | CCCCCn1c(Sc2ccc(C#N)c([N+](=O)[O-])c2)nnc1-c1cccs1 | 780 nM
89 | O=C(/C=C/c1ccc(Cl)c(Cl)c1)N1CCN(C(=O)Nc2ccc(F)c(Cl)c2)CC1 | 720 nM
90 | COc1ccc2nccc([C@@H](O)CN3CCC(NC(=O)Cc4ccc(Br)c5ccccc45)CC3)c2c1 | 820 nM
91 | Cc1ccc(C)c(C2CCN(CCCCNC(=O)c3ccc(NC(=O)c4ccc(Cl)cc4)cc3)CC2)c1 | 850 nM
92 | COC(=O)c1ccc(CC(C)NCC(O)c2cccc(C(F)(F)F)c2)c(OC)c1 (configuration not stated) | 800 nM
93 | CN1CCN(CCCN(Cc2cccc(-c3cccc(CNCc4ccc5c(c4)OCO5)c3)c2)C(=O)CCC2CCCC2)CC1 | 950 nM
94 | CN(C)CCNC(=O)c1cc2c(-c3ccc(Cl)cc3)nn(C)c2s1 | 670 nM
95 | CCC1CN2CCc3c([nH]c4ccc(OC)cc34)[C@@H]2C[C@@H]1CC1NCCc2cc(OC)c(OC)cc21 (some centres not stated) | 860 nM
96 | COc1ccc2nccc([C@@H](O)CN3CCC(NCc4cc5c(F)ccc(F)c5[nH]4)CC3)c2n1 | 700 nM
97 | CN(C)Cc1cc2c(O)c(Cc3ccccc3)ccc2o1 | 1090 nM
